Results taken from article PMC6208908, “Field template-based design and biological evaluation of new sphingosine kinase 1 inhibitors” (Breast Cancer Research and Treatment, 2018).
Marks after values point to notes of the source that are not given here. Each block holds one compound with its values, some of them ahead of it.

Experiments:
[1] = system: 4T1 breast cancer allografts; assay: 4T1 breast cancer allograft, tumour volume; type: in vivo, BALB/c nude mice; settings: 5 mg/kg each drug i.p. twice a week for 2 weeks; control 468 mm^3
Description: Breast cancer allografts were established in 6–8-week-old BALB/c nude mice by injection of 10^6 4T1 cells into their mammary pad. Two weeks after implantation, mice were randomised into treatment groups (n = 6/group) and treated twice a week for 2 weeks with intraperitoneal injections of dimethyl sulfoxide (DMSO), 5 mg/kg DTX, 5 mg/kg SK-F, 5 mg/kg DTX + 5 mg/kg SK-F. One day after the last treatment, all mice were euthanized and blood was collected. Tumour long and short radii were measured using calipers and tumour volume (v) was calculated using the formula v = 4/3 πab^2 (a – long radius, b – short radius). Mice and individual organs were weighed and primary tumours were then processed for analysis of SK1 activity as described above. Full blood count and liver function test analysis was done in the Hammersmith hospital biochemical lab. […]
(§1) Fig. 5 Effect of compound SK-F on breast tumour growth and SK1 activity. […] Two weeks after implantation, mice were randomised into treatment groups (n = 6/group) and treated twice a week for 2 weeks with intraperitoneal injections of: DMSO, 5 mg/kg DTX, 5 mg/kg SK-F, 5 mg/kg DTX + 5 mg/kg SK-F. a Tumour volume in the different treatment groups of 4T1 breast cancer implanted in mouse mammary fat pad. b SK1 activity in tumours was measured using radiolabelling. […]

tumour SK1 = molecular target: T1, tumour SK1 (Mus musculus, UniProt Q8CI15); assay: SK1 activity in 4T1 allograft tumours; type: in vivo, BALB/c nude mice; settings: 5 mg/kg each drug i.p. twice a week for 2 weeks
T1 construct: primary tumours were then processed for analysis of SK1 activity as described above; from tissue; host or cells: 4T1 breast tumour allografts from BALB/c nude mice
Description: (§2) Breast cancer allografts were established in 6–8-week-old BALB/c nude mice by injection of 10^6 4T1 cells into their mammary pad. Two weeks after implantation, mice were randomised into treatment groups (n = 6/group) and treated twice a week for 2 weeks with intraperitoneal injections of dimethyl sulfoxide (DMSO), 5 mg/kg DTX, 5 mg/kg SK-F, 5 mg/kg DTX + 5 mg/kg SK-F. One day after the last treatment, all mice were euthanized and blood was collected. Tumour long and short radii were measured using calipers and tumour volume (v) was calculated using the formula v = 4/3 πab^2 (a – long radius, b – short radius). Mice and individual organs were weighed and primary tumours were then processed for analysis of SK1 activity as described above. Full blood count and liver function test analysis was done in the Hammersmith hospital biochemical lab.
as §1

[2] = Whole-body toxicity: body and organ weights, full blood count; type: in vivo, BALB/c nude mice; settings: 5 mg/kg each drug i.p. twice a week for 2 weeks, 4T1 tumour-bearing mice
Description: as §2
Tumour-bearing mice were divided into four groups (n = 6) and injected with: DMSO, 5 mg/kg DTX, 5 mg/kg SK-F, 5 mg/kg DTX + 5 mg/kg SK-F. Two weeks after the tumour cells inoculation, we began intraperitoneal injections of drug preparations and continued these twice a week for two weeks. Based on our previous studies, we have chosen relatively smaller doses of SK-F and DTX in order to investigate their combined effect and potential chemosensitisation of breast tumours to taxane therapies. In the control group, tumours grew progressively and rapidly (Fig. 5a). […] Five mg/kg DTX has induced a significant reduction in tumour volume to 281 mm^3. The biggest reduction in tumour volume to 159 mm^3 was observed when DTX was combined with SK-F (Fig. 5a). […] We have further investigated the effects of the used treatments on mouse whole-body toxicity. DTX has reduced body and liver weight, while SK-F had no significant effect (Table 1). DTX has induced significant anaemia and leukopenia, while the effects of SK-F were very moderate. In all cases, the effects of combined therapy were similar to DTX alone (Table 1). Liver function test was performed as a surrogate marker for chemotherapy-induced liver damage (Fig. 6). […] The combination therapy had similar toxicity profile to DTX alone, while exerting higher antitumour efficacy (Fig. 5a).

[3] = Liver function tests in treated mice; type: in vivo, BALB/c nude mice; settings: 5 mg/kg i.p. twice a week for 2 weeks
Description: as §2
Fig. 6 Liver function tests of mice treated with SK-F and docetaxel (DTX). Breast cancer allografts were established in BALB/c nude mice by injection of 4T1 cells into their mammary pad. Two weeks after implantation, mice were randomised into treatment groups (n = 6/group) and treated twice a week for two weeks with intraperitoneal injections of: DMSO, 5 mg/kg DTX, 5 mg/kg SK-F, 5 mg/kg DTX + 5 mg/kg SK-F. a Alanine transaminases (ALT). b Bilirubin. c Aspartate transaminase (AST). d Albumin. e Alkaline phosphatase (ALP). f Total protein. Columns, mean of n = 6 animals normalised to control; bars, SEM. (*p < 0.05; **p < 0.01)

recombinant SK1 = recombinant SK1 (Homo sapiens, UniProt Q9NYA1); assay: SK1 activity assay, cell-free (recombinant SK1 extract, radiolabelling); type: biochemical; settings: 1 µM compound, recombinant SK1 extract in excess, 1 µM ATP, 1 µM sphingosine, 1 h
Description: (§3) SK assay was performed using radiolabeling as previously described, in conditions favouring SK1 or SK2 activity as required.
The synthesised compounds were then screened for SK1 inhibition. Compounds SK-A to SK-F and SKI-II (commercial inhibitor of SK used as positive control with reported IC50 0.5 µM [14]) at 1 µM were incubated in the presence of recombinant SK1 extract (in excess), 1 µM of ATP, and exogenous 1 µM sphingosine for 1 h followed by measurement of SK1 activity.
(§4) Fig. 2 Inhibition of sphingosine kinase 1 in cell-free extract and in vitro. a 1 µM of compounds SK-A to SK-F and SKI-II (commercial inhibitor of SK used as a positive control) were incubated in the presence of recombinant SK1 extract (in excess), 1 µM of ATP, and 1 µM exogenous sphingosine for 1 h. b MDA-MB-231 cells were incubated with 1 µM of compounds SK-A to SK-F and SKI-II for 6 h. SK1 activity was measured as described in materials and methods. Columns, means of three independent experiments normalised to vehicle; bars, SEM. (ns, non-significant; *p < 0.05; **p < 0.01)
SK1 activity was determined in the presence of triton X-100 and SK2 activity was measured in the presence of high salt concentrations, conditions that favour SK1 and SK2, respectively. […] Km for SK1 was 6.97 ± 1.20 µM, Vmax 98 ± 4 µM/min/mg protein and Ki for SK-F 0.46 ± 0.1 µM. […] Some SK inhibitors such as SKI-II were previously shown to induce proteasomal degradation of SK1 [48, 49].

[4] = molecular target: T2, endogenous SK1 in MDA-MB-231 cells (Homo sapiens, UniProt Q9NYA1); assay: SK1 activity in lysates of treated MDA-MB-231 cells; type: cell-based; settings: 1 µM, 6 h
T2 construct: We treated MDA-MB-231 cells with 1 µM of compounds SK-A – SK-F and SKI-II as the positive control for 6 h; endogenous in cells; host or cells: MDA-MB-231
Description: After incubation, cells were washed with ice-cold phosphate-buffered saline (PBS) and harvested.
as §3, §4
Reportedly, among human tumour cell lines, the breast cancer cell line MDA-MB-231 expresses high levels of SK activity. We treated MDA-MB-231 cells with 1 µM of compounds SK-A – SK-F and SKI-II as the positive control for 6 h and analysed SK1 activity in the cell lysates using SK1 activity assay.

SK1 mRNA = SK1 mRNA expression by qRT-PCR in MDA-MB-231 cells; type: cell-based, human; settings: 1, 2, 5 and 10 µM, 24 h
Description: Isolation of total RNA from MDA-MB-231 cells was performed using the RNeasy Mini kit (Qiagen, Valencia, CA, USA) as per manufacturer’s instructions. RNA quantity and purity were measured using a NanoDrop ND-1000 Spectrophotometer (Thermo Fisher Scientific, Loughborough, UK). Reverse transcription was performed using precision nanoScript™ reverse transcription kit (PrimerDesign Ltd, Southampton, UK). qRT-PCR was done as already described. Ct values were exported and analysed using qbase software (Biogazelle NV, Zwijnaarde, Belgium).
Fig. 3 Effect of compounds SK-A to SK-F on SK1 mRNA levels. MDA-MB-231 cells were incubated with 1, 2, 5 and 10 µM of compounds SK-A to SK-F for 24 h. SK1 mRNA expression was measured by qRT-PCR. Columns, means of three independent experiments normalised to control; bars, SEM. (*p < 0.05; **p < 0.01)

SK1 protein = SK1 protein level (Figure S9); type: cell-based
MDA-MB-231 cells = assay: MTT cell viability / proliferation assay; type: cell-based, human; settings: 1, 2, 5 and 10 µM, up to 120 h
Description: Cellular viability was measured using the 3-(4,5-dimethylthiazol-2-yl)-2,5-diphenyltetrazolium bromide (MTT; 5 mg/ml) colorimetric assay as already described.
Fig. 4 Effect of compounds SK-A to SK-F on breast cancer cell viability. MDA-MB-231 cells were incubated with 1, 2, 5 and 10 µM of compounds SK-A to SK-F for up to 120 h. Cell proliferation was measured using MTT assay. Columns, means of three independent experiments normalised to control; bars, SEM. (*p < 0.05; **p < 0.01; ^§p < 0.001). IC50 levels for SK-F for 72, 96 and 120 h were 7, 4.5 and 3 µM, respectively

SK = system: SK; design: method as in PMID 14522923; settings: commercial inhibitor of SK, positive control; read-out: reported IC50; cited from earlier work

T2 sequence (Q9NYA1 whole entry): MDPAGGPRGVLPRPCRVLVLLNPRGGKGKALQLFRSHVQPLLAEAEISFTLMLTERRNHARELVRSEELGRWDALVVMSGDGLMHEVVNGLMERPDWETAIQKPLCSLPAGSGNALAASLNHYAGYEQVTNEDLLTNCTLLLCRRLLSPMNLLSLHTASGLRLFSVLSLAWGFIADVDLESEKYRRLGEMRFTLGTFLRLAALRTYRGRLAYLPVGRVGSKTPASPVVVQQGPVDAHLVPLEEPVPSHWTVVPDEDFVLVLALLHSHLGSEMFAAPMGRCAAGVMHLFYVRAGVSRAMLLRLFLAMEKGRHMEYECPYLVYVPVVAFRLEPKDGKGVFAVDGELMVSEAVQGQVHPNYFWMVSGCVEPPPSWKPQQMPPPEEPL
Chain of recombinant SK1 (Q9NYA1 whole entry): as above
T1 sequence (Q8CI15 whole entry): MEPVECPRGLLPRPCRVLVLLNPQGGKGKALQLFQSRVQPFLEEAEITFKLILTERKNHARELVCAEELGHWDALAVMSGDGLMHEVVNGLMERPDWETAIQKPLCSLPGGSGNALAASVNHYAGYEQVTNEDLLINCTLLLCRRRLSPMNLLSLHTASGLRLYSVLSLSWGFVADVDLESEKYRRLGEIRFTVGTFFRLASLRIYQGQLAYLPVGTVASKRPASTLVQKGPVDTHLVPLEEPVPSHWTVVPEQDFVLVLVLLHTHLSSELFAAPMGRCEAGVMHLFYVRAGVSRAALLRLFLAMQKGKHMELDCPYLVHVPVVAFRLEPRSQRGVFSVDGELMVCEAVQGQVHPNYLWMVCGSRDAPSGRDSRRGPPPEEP

tumour SK1 activity (tumour SK1): no effect
alkaline phosphatase (ALP) [3]: milder increase
Compound: CC(=O)O[C@@]12CO[C@@H]1C[C@H](O)[C@@]1(C)C(=O)[C@H](O)C3=C(C)[C@@H](OC(=O)[C@H](O)[C@@H](NC(=O)OC(C)(C)C)c4ccccc4)C[C@@](O)([C@@H](OC(=O)c4ccccc4)[C@H]21)C3(C)C [DTX, docetaxel, reference compound]
tumour volume at the end of the study [1]: 281 mm^3
Hb [2]: 65 ± 7 % of control ± SEM
WCC [2]: 54 ± 4 % of control ± SEM
Weight of Body [2]: 86 ± 7 % of control ± SEM
Weight of Kidney [2]: 97 ± 5.9^a % of control ± SEM
Weight of Liver [2]: 85.3 ± 11.4^a % of control ± SEM
Weight of Lungs [2]: 99.4 ± 4.a % of control ± SEM
Weight of Spleen [2]: 91.3 ± 15.4^a % of control ± SEM
alanine transaminases (ALT) [3]: significant increases
aspartate transaminase (AST) [3]: significant increases

inhibition of SK1 activity in cell-free settings (recombinant SK1): ineffective
SK1 activity in cells versus vehicle [4]: significantly decreased
Compound: CCCCCCCCc1ccc(NC(=O)C2CCNCC2)cc1 [SK-C]
effect on SK1 mRNA expression (SK1 mRNA): reduction in SK1 mRNA
decrease in SK1 protein (SK1 protein): 75%
effect on MDA-MB-231 cancer cell proliferation (MDA-MB-231 cells): highest effect

Compound: Oc1ccc(Nc2nc(-c3ccc(Cl)cc3)cs2)cc1 [SKI-II, reference compound]
effect on SK1 mRNA expression (SK1 mRNA): minimal effect
effect on SK1 protein (SK1 protein): significant decrease
IC50 (SK): 500 nM

inhibition of SK1 activity in cell-free settings (recombinant SK1): statistically significant inhibition
SK1 activity in cells versus vehicle [4]: significantly decreased
Compound: CCCCCCCCc1ccc(NC(=O)c2cccc(Cl)c2)cc1 [SK-E]
